Earlier results as cited in patent publication US20070286864A1, “Combined treatment with an EGFR kinase inhibitor and an agent that sensitizes tumor cells to the effects of EGFR kinase inhibitors” (priority 2006, published 2007).

Experiments:
H292 cells = details: erlotinib single agent (10 μM), sensitive = maximum growth inhibition greater than 50%
H358 cells = details: erlotinib single agent (10 μM), sensitive = maximum growth inhibition greater than 50%
H460 cells = details: erlotinib single agent (10 μM), relatively insensitive = maximum growth inhibition less than 50%
H1703 cells = details: erlotinib single agent (10 μM), relatively insensitive = maximum growth inhibition less than 50%
Calu6 cells = details: erlotinib single agent (10 μM), relatively insensitive = maximum growth inhibition less than 50%

C#Cc1cccc(Nc2ncnc3cc(OCCOC)c(OCCOC)cc23)c1 [erlotinib, [6,7-bis(2-methoxyethoxy)-4-quinazolin-4-yl]-(3-ethynylphenyl)amine]
sensitivity of cell line to erlotinib (H292 cells): sensitive | sensitivity of cell line to erlotinib (H358 cells): sensitive | sensitivity of cell line to erlotinib (H460 cells): relatively insensitive | sensitivity of cell line to erlotinib (H1703 cells): relatively insensitive | sensitivity of cell line to erlotinib (Calu6 cells): relatively insensitive
